One compound from article PMC6006285, “Specific stereochemistry of OP-1074 disrupts estrogen receptor alpha helix 12 and confers pure antiestrogenic activity” (Nature Communications, 2018) can be followed below.

Series [1] concerns CAMA-1 cells. Put plainly: Inhibition of E2-stimulated proliferation of CAMA-1 cells. The format is cell-based. To be noted: Homo sapiens, CAMA-1, 192 h; read-out: CAMA-1 IC50 proliferation (Fig. 3c). The procedure: Shown is a representative figure analyzed and presented as above. d, Western blot of destabilization of ERα protein by OP-1074.
Proliferation was measured using CyQuant fluorescent DNA-binding dye kit (ThermoFisher Scientific, #C7026) using 1:200 GR dye and reading fluorescence at 485 nm excitation and 538 nm emission on the Varioskan Lux multimodal plate reader.

The test system of series [2] is MCF7/HER2/neu tumors. The procedure:
MCF7/HER2/neu cells were grown in culture and implanted into 6–7 week athymic ovariectomized female nu/nu mice (Taconic Biosciences). To stimulate tumor growth, 0.18 mg estradiol 90 day release pellets (Innovative Research) were implanted along with cells. […] Tumor volume and bodyweight were measured twice weekly. At end of the study animals were euthanized, tumors resected and snap frozen in liquid nitrogen, and uteri were resected, weighed, and fixed in 10% formalin.

Series [3] has as its system MCF-7 cells. As to the kind of experiment: Inhibition of E2-stimulated proliferation of MCF-7 cells. The series is classed as cell-based. To be noted: Homo sapiens.
In series [4] the target is T1, ERα (Homo sapiens, UniProt P03372).
T1 construct: endogenous in cells
T1 sequence (P03372 1-595): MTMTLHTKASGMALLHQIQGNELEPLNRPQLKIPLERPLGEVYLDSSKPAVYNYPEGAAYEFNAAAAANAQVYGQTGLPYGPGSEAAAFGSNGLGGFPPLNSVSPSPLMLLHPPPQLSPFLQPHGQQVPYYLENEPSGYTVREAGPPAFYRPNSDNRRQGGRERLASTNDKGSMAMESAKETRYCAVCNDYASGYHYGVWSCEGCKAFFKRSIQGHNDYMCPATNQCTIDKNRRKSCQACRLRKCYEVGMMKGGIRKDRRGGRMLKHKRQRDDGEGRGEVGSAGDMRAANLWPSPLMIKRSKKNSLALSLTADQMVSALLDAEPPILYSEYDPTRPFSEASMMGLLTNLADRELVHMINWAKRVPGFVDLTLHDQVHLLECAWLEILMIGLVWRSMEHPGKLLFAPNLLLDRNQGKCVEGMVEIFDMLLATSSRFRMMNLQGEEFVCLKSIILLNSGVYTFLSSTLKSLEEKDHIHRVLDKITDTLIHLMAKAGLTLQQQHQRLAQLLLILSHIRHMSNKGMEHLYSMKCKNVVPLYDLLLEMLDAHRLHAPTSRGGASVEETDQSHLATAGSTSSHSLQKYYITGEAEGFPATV
Put plainly: ERα protein levels by immunoblotting. The series is classed as cell-based. To be noted: MCF-7 cells, 100 nM ligand, 24 h, means of n experiments ±s.d. The protocol: However, it is conceivable that under some clinical contexts SERD activity may still be a desirable feature by reducing the number of functional receptors in tumors.
Imaging was performed on FluorChem Imager by Alpha Innotech. […] An uncropped image of the immunoblot is shown in Supplementary Fig. 5.
(A western blot detects proteins with antibodies after separation by electrophoresis.)

Series [5] deals with T2, Estrogen Receptor α LBD (ERα) (Homo sapiens, UniProt P03372).
T2 construct: 2 nM biotinylated Estrogen Receptor α LBD (ERα) was incubated; biotin (biotinylated)
T2 sequence (P03372 311-547 limits assumed): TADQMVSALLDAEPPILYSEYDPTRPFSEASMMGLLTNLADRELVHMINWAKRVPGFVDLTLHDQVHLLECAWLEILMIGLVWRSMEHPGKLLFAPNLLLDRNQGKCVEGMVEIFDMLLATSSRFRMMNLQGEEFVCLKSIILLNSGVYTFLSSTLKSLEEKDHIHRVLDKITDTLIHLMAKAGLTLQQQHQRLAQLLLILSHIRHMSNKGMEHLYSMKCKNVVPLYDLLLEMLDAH
Put plainly: Competitive ligand binding assay with [3H]-E2. To be noted: 10 nM [3H]-E2 tracer, 2 nM biotinylated ERα LBD; representative experiment. The procedure:
Experimental data points are mean + /− s.e.m. of triplicate samples in a representative experiment. […] Experimental data points are mean + /− s.d. of triplicate samples in a representative experiment
Triplicate reactions were vortexed and 100 μL was added in triplicate to a 96-well streptavidin flashplate (Perkin Elmer #SMP103001PK), which incubated overnight at 4 °C prior to reading.

Series [6] addresses T3, wild type ERα (Homo sapiens, UniProt P03372).
T3 construct: expressed in transfected cells; host or cells: HeLa
T3 sequence (P03372 1-595): T1 sequence (P03372 1-595)
Put plainly: ERE3X-TATA-Luc reporter in HeLa cells transfected with ERα. The format is cell-based. The note with it: 1 nM E2, 22 h, read-out: IC50 inhibition of E2-stimulated ERα transcriptional activity. An excerpt: Supplementary Figure 2: Specificity of OP-1074
Supplementary Figure 2. OP-1074 is specific for ERα and ERβ. A, OP-1074 inhibits E2-stimulated ERα and ERβ mediated transcription. HeLa cells were transfected with an estrogen responsive reporter gene, ERE3X-TATA-Luc, along with wild type ERα or ERβ, and treated […]
Shown is the mean luciferase activity
Luciferase activity (% Dex)
Luciferase activity (% MPA)
Luciferase activity (% R1881)
(1 picture or pasted object on this page, not shown here) […]
representative experiment. […]
receptor (AR, (B)), glucocorticoid receptor (GR, (C)), and the B-isoform of the progesterone receptor (PR-B, (D)). HeLa cells were transfected with the designated wild type receptor along with reporter gene PRE3X-TATA-Luc, which is promiscuously activated with known agonists specific for each receptor: R1881 for AR, dexamethasone (Dex) for GR, and medroxyprogesterone acetate (MPA) for PR-B. Each receptor was also dosed with one concentration of known antagonist for each receptor: 32 nM bicalutamide for AR, and 500 nM RU486 for GR and PR. Transfected cells were treated with the designated ligands for 22 hours and luciferase activity assayed. Shown are representative experiments, independently performed at least 3 times. Note that curves for agonists for each receptor were performed in separate experiments. […]

The mark [7] stands for this setting: number of 10 tumors at end of study, OP-1074 100 mg/kg oral twice daily, fulvestrant 100 mg/kg subcutaneous daily.

Several values for one entry are separate records, joined by “and”; a condition that tells them apart may be missing. Equal values may be shown once. Read-outs that look alike come from different tables or passages of the source.

Regarding `CC1=C(c2ccc(O)cc2)[C@H](c2ccc(OCCN3CC[C@@H](C)C3)cc2)Oc2cc(O)ccc21` [OP-1074], the IC50 in series [1] was 5.7 nM; in series [3] (MCF7, 168 h, read-out: MCF-7 IC50 proliferation (Fig. 3b)) it was 9.2 nM; in series [3] (MCF7, read-out: IC50 proliferation), 7.2 ± 0.9 nM; in series [5], 7 nM and 7.03 nM; in series [6], 1.6 nM and 1.7 nM. Also, the Tolerability result in series [2] (nude mice, 100 mg/kg dosed twice a day by oral gavage) is given as “well-tolerated with no adverse effects on behavior or mouse bodyweight”. In series [2] (setting [7]), the “Tumors shrunk / growth inhibited by >50%” value is on record as “all ten”. Besides, the “Tumors shrunk >80%” value in series [2] (setting [7]) was 9/10. The “Relative ERα protein levels (% vehicle)” value in series [4] was 49 % vehicle and 49% ± 13 (n = 15) % vehicle.
